According to PMC7708037, “Targeting OGG1 arrests cancer cell proliferation by inducing replication stress” (Nucleic Acids Research, 2020):

Columns and labels:
[1] = set-up: method as in PMID 30442810; conditions: cited from earlier work
A3 xenograft tumors = assay: Mouse xenograft experiment; type: in vivo; conditions: A3 subcutaneous tumors in NOD-SCID mice, oral 20 mg/kg, increased to 40 mg/kg
Procedure: Animal experiments were conducted as per the European directive, ethical guideline and regulations of the regional animal ethical committee Stockholm 2010/63 (N8914). Upon arrival to animal facility, animals were acclimatized in the animal house for a week with ad lib food and water, with a 12 h light cycle and the temperature and humidity set according to laboratory animal guidelines and regulations. For the xenograft experiment involving inducible shRNA, 1 × 10^7 non-targeting luciferase transfected A3 cells in 50% matrigel in PBS were injected into flank region of BALB/c nude mice. Later, mice from non-targeting and shRNA groups were randomly divided into two groups containing eight mice per group. […] Tumor volume was measured using calipers (length × 0.52 × width × width) and bioluminescence images were taken using an IVIS spectrum in vivo imaging system (Perkin-Elmer) after intraperitoneal injection of D-luciferin (150 mg/kg in PBS). […] Following lysis by three freeze-thaw cycles, samples were centrifuged at 20 000 × g for 30 min, and OGG1 in the supernatant was detected by immunoblotting. […]
Figure 7. […] Tumors were excised following termination, and TH5487 target engagement was analyzed by cellular thermal shift assay, using an antibody specific for the human OGG1 protein. […]

[2] = tested on: Ogg1−/− mouse embryonic fibroblasts; assay: Colony formation assay; type: cell-based; conditions: up to 20 μM
Procedure: The indicated concentrations TH5487 were spotted in 6-well plates using a Tecan D300e digital dispenser. 200–500 cells/well H460, ACHN, Ogg1^−/− mouse embryonic fibroblasts and MRC5 cells were then seeded at 200–500 cells/well and incubated for 7–11 days. Colonies exceeding 50 cells were fixed, stained and enumerated as above.
Figure 3. The OGG1 inhibitor TH5487 is selectively toxic to oncogene-expressing cells and cancer cell lines. (A) Close-up view of ligand TH5487 (green) binding to human OGG1. Important residues in the binding site are marked, hydrogen bond interactions are shown in black dashed line, water (red sphere)-mediated interactions in grey dashed line. (B) Comparison between the binding of ligand TH5487 (green) to human OGG1 (gray) with the structure of TH5675 (pink) bound to mouse OGG1 (yellow, PDB 6G3Y). (C) Viability of BJ-Tert and BJ-Ras cells exposed to the indicated concentrations TH5487 for five days. Data are average ±SD of four technical replicates from two independent experiments. (D) Clonogenic survival of cell lines exposed to TH5487. The cancer cell lines ACHN and H460, and the non-transformed cell lines MRC5 and Ogg1^−/− mouse embryonic fibroblasts (MEF) were incubated for 6–11 days in the presence of the indicated concentrations TH5487, followed by colony enumeration. […]

**Q.** Which results are given for O=C(Nc1ccc(I)cc1)N1CCC(n2c(=O)[nH]c3c(Br)cccc32)CC1 [TH5487]?
**A.** Tolerability in mice [1]: well tolerated; Xenograft growth inhibition (A3 xenograft tumors): not able to detect xenograft growth inhibition; Clonogenic potential [2]: unaffected
